# Assay results from patent US6355799B1, “Substituted benzene compounds, process for their preparation, and herbicidal and defoliant compositions containing them” (ISK Americas Incorporated, priority 1997, dated 2002).
# Key:
# Format in all cases: in vivo
# [1] = test system: ivyleaf morningglory (Ipomoea hederacea, IPOHE); assay: Pre-emerge test, greenhouse herbicide activity screening; conditions: pre-emerge, 14 days after application, rating scale 0-100
# Summary of the method: (§1)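 Fourteen days after spraying, crop and weed injury was graded visually from 0, no effect, to 100, every plant dead. Test substances were dissolved in acetone and applied at 15–1000 g ai/ha with a flat-fan nozzle. Application was either pre-emergence, one day after sowing, or post-emergence at the 2–3 leaf stage.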
# [2] = test system: large crabgrass (Digitaria sanguinalis, DIGSA); assay: as above; conditions: pre-emerge, 14 days after application, rating scale 0-100
# Summary of the method: as §1
# [3] = test system: lambsquarters (Chenopodium album, CHEAL); assay: as above; conditions: pre-emerge, 14 days after application, rating scale 0-100
# Summary of the method: as §1
# [4] = test system: sicklepod (Cassia obtusifolia, CASOB); assay: as above; conditions: pre-emerge, 14 days after application, rating scale 0-100
# Summary of the method: as §1
# [5] = test system: velvetleaf (Abutilon theophrasti, ABUTH); assay: as above; conditions: pre-emerge, 14 days after application, rating scale 0-100
# Summary of the method: as §1
# [6] = test system: green foxtail (Setaria viridis, SETVI); assay: as above; conditions: pre-emerge, 14 days after application, rating scale 0-100
# Summary of the method: as §1
# [7] = test system: johnsongrass (Sorghum halepense, SORHA); assay: as above; conditions: pre-emerge, 14 days after application, rating scale 0-100
# Summary of the method: as §1
# [8] = test system: barnyardgrass (Echinochloa crus-galli, ECHCG); assay: as above; conditions: pre-emerge, 14 days after application, rating scale 0-100
# Summary of the method: as §1
# [9] = test system: field corn (Zea mays L., var. Dekalb 535, CORN); assay: Post-emerge test, crop safety; conditions: post-emerge, 14 days after application, rating scale 0-100
# Summary of the method: as §1
# [10] = test system: upland rice (Oryza sp., var. Tebonnet, RICE); assay: Post-emerge test, crop safety; conditions: post-emerge, 14 days after application, rating scale 0-100
# Summary of the method: as §1
# [11] = test system: field corn (Zea mays L., var. Dekalb 535, CORN); assay: Pre-emerge test, crop safety; conditions: pre-emerge, 14 days after application, rating scale 0-100
# Summary of the method: (§2)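 Sandy loam pots; pre-emerge: sown 1 d pre-spray, surface-watered after, then bottom-watered. Post-emerge: sown 8–21 d before, 2–3 leaf stage, + 0.25% v/v NIS, bottom-watered. Acetone, 187 l/ha track spray, 15–1000 g ai/ha. 0–100 injury score, day 14.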
# [12] = test system: upland rice (Oryza sp., var. Tebonnet, RICE); assay: Pre-emerge test, crop safety; conditions: pre-emerge, 14 days after application, rating scale 0-100
# Summary of the method: as §2
# [13] = test system: redroot pigweed (Amaranthus retroflexus, AMARE); assay: Pre-emerge test, greenhouse herbicide activity screening; conditions: pre-emerge, 14 days after application, rating scale 0-100
# Summary of the method: as §2
# [14] = test system: ivyleaf morningglory (Ipomoea hederacea, IPOHE); assay: Post-emerge test, greenhouse herbicide activity screening; conditions: post-emerge, 14 days after application, rating scale 0-100
# Summary of the method: as §2
# [15] = test system: large crabgrass (Digitaria sanguinalis, DIGSA); assay: as above; conditions: post-emerge, 14 days after application, rating scale 0-100
# Summary of the method: as §2
# [16] = test system: lambsquarters (Chenopodium album, CHEAL); assay: as above; conditions: post-emerge, 14 days after application, rating scale 0-100
# Summary of the method: as §2
# [17] = test system: sicklepod (Cassia obtusifolia, CASOB); assay: as above; conditions: post-emerge, 14 days after application, rating scale 0-100
# Summary of the method: as §2
# [18] = test system: velvetleaf (Abutilon theophrasti, ABUTH); assay: as above; conditions: post-emerge, 14 days after application, rating scale 0-100
# Summary of the method: as §2
# [19] = test system: redroot pigweed (Amaranthus retroflexus, AMARE); assay: as above; conditions: post-emerge, 14 days after application
# Summary of the method: as §2
# [20] = test system: green foxtail (Setaria viridis, SETVI); assay: as above; conditions: post-emerge, 14 days after application, rating scale 0-100
# Summary of the method: as §2
# [21] = test system: johnsongrass (Sorghum halepense, SORHA); assay: as above; conditions: post-emerge, 14 days after application, rating scale 0-100
# Summary of the method: as §2
# [22] = test system: barnyardgrass (Echinochloa crus-galli, ECHCG); assay: as above; conditions: post-emerge, 14 days after application, rating scale 0-100
# Summary of the method: as §2
smiles,measurement,setting,value
COc1c(Cl)cc(F)c(-n2c(=O)cc(C(F)(F)F)n(C)c2=O)c1SC(C)C [17-2],phytotoxicity rating IPOHE,[1]; 63 g ai/ha,0
same,phytotoxicity rating IPOHE,[1]; 250 g ai/ha,0
same,phytotoxicity rating DIGSA,[2]; 63 g ai/ha,0
same,phytotoxicity rating DIGSA,[2]; 250 g ai/ha,0
same,phytotoxicity rating CHEAL,[3]; 63 g ai/ha,60
same,phytotoxicity rating CHEAL,[3]; 250 g ai/ha,90
same,phytotoxicity rating CASOB,[4]; 63 g ai/ha,0
same,phytotoxicity rating CASOB,[4]; 250 g ai/ha,0
same,phytotoxicity rating ABUTH,[5]; 63 g ai/ha,0
same,phytotoxicity rating ABUTH,[5]; 250 g ai/ha,20
same,phytotoxicity rating SETVI,[6]; 63 g ai/ha,0
same,phytotoxicity rating SETVI,[6]; 250 g ai/ha,0
same,phytotoxicity rating SORHA,[7]; 63 g ai/ha,0
same,phytotoxicity rating SORHA,[7]; 250 g ai/ha,0
same,phytotoxicity rating ECHCG,[8]; 63 g ai/ha,0
same,phytotoxicity rating ECHCG,[8]; 250 g ai/ha,0
same,Post-emerge Herbicidal Activity CORN (crop damage rating),[9]; 63 g ai/ha,0
same,Post-emerge Herbicidal Activity CORN (crop damage rating),[9]; 250 g ai/ha,0
same,Post-emerge Herbicidal Activity RICE (crop damage rating),[10]; 63 g ai/ha,0
same,Post-emerge Herbicidal Activity RICE (crop damage rating),[10]; 250 g ai/ha,0
same,phytotoxicity rating CORN,[11]; 63 g ai/ha,0
same,phytotoxicity rating CORN,[11]; 250 g ai/ha,0
same,phytotoxicity rating RICE,[12]; 63 g ai/ha,0
same,phytotoxicity rating RICE,[12]; 250 g ai/ha,0
same,phytotoxicity rating AMARE,[13]; 63 g ai/ha,30
same,phytotoxicity rating AMARE,[13]; 250 g ai/ha,60
same,Post-emerge Herbicidal Activity IPOHE (phytotoxicity rating),[14]; 63 g ai/ha,0
same,Post-emerge Herbicidal Activity IPOHE (phytotoxicity rating),[14]; 250 g ai/ha,20
same,Post-emerge Herbicidal Activity DIGSA (phytotoxicity rating),[15]; 63 g ai/ha,0
same,Post-emerge Herbicidal Activity DIGSA (phytotoxicity rating),[15]; 250 g ai/ha,0
same,Post-emerge Herbicidal Activity CHEAL (phytotoxicity rating),[16]; 63 g ai/ha,0
same,Post-emerge Herbicidal Activity CHEAL (phytotoxicity rating),[16]; 250 g ai/ha,40
same,Post-emerge Herbicidal Activity CASOB (phytotoxicity rating),[17]; 63 g ai/ha,0
same,Post-emerge Herbicidal Activity CASOB (phytotoxicity rating),[17]; 250 g ai/ha,10
same,Post-emerge Herbicidal Activity ABUTH (phytotoxicity rating),[18]; 63 g ai/ha,0
same,Post-emerge Herbicidal Activity ABUTH (phytotoxicity rating),[18]; 250 g ai/ha,50
same,Post-emerge Herbicidal Activity AMARE (phytotoxicity rating),"[19]; 63 g ai/ha, rating scale 0-100 (0 no damage, 100 complete death)",0
same,Post-emerge Herbicidal Activity AMARE (phytotoxicity rating),"[19]; 250 g ai/ha, rating scale 0-100",30
same,Post-emerge Herbicidal Activity SETVI (phytotoxicity rating),[20]; 63 g ai/ha,0
same,Post-emerge Herbicidal Activity SETVI (phytotoxicity rating),[20]; 250 g ai/ha,0
same,Post-emerge Herbicidal Activity SORHA (phytotoxicity rating),[21]; 63 g ai/ha,0
same,Post-emerge Herbicidal Activity SORHA (phytotoxicity rating),[21]; 250 g ai/ha,0
same,Post-emerge Herbicidal Activity ECHCG (phytotoxicity rating),[22]; 63 g ai/ha,0
same,Post-emerge Herbicidal Activity ECHCG (phytotoxicity rating),[22]; 250 g ai/ha,0
